Laboratory results: publication PMC6152667, “Synthesis and Evaluation of Antimicrobial Activity of [R4W4K]-Levofloxacin and [R4W4K]-Levofloxacin-Q Conjugates” (Molecules : A Journal of Synthetic Chemistry and Natural …, 2017)
In brackets after ≈: the same amount, converted by molar mass. Like-named read-outs stand apart in the source and are kept apart here. One block for each compound: values may come before it. Side chains are listed from the residue outwards. Peptide text beside a SMILES is read from it. * marks the point of attachment. Levofloxacinoyl = C[C@H]1COc2c(N3CCN(C)CC3)c(F)cc3c(=O)c(C(=O)*)cn1c23; X1 = C[C@H]1COc2c(F)c(F)cc3c(=O)c(C(=O)*)cn1c23; βAla = NCCC(=O)O

Assays:
[1] = system: Methicillin-Resistant Staphylococcus aureus (Los Angeles County (LAC) clone); assay: microbe, parasite or virus in culture; type: cell-based; conditions: for MIC: Staphylococcus aureus, MRSA, read-out: MIC, Methicillin-Resistant Staphylococcus aureus (MRSA)
Description: (§1) The antibacterial activities of synthesized peptides were evaluated against two bacterial strains and compared to a control antibiotic and [R4W4]. Gram-negative bacteria: Klebsiella pneumoniae (Clinical strain (levofloxacin-susceptible)) and the Gram-positive bacteria: Methicillin-Resistant Staphylococcus aureus (Los Angeles County (LAC) clone) were employed for the determination of antimicrobial activities of peptides. MRSA and Klebsiella pneumoniae were inoculated into 5 mL of Mueller Hinton […] (MH) at 37 °C and shaken in an orbital shaker at 175 rpm overnight. The cultured suspension was diluted in 5 mL normal saline until it achieved 0.5 McFarland (1.5 × 10^8 bacterial cell density) turbidity. An amount of 40 μL of the McFarland solution was added to […] of MH media to make 1/150 dilution. Most peptides were dissolved in distilled water (except some of them that were dissolved in 50 mM NH4HCO3 to improve the solubility) to make 256 μg/mL solutions. Minimal inhibitory concentrations (MICs) were determined using the broth microdilution method. Briefly, 200 μL of all tested peptides and controls was added in the first column of the 96-well plate. Then, by adding 100 μL of media to the other wells and performing a 2-fold dilution in each well, serial dilution of the compound was prepared. After a series of 2-fold dilutions, 100 μL of bacterial solution was added to all wells, and then the microliter plates were incubated statically at 37 °C overnight. MICs were determined as the minimal concentration at which no visible bacterial growth was present. All experiments were conducted in triplicate.

[2] = system: Klebsiella pneumoniae (Clinical strain (levofloxacin-susceptible)); assay: microbe, parasite or virus in culture; type: cell-based; conditions: for MIC: Klebsiella pneumoniae
Description: as §1

[3] = system: Methicillin-resistant Staphylococcus aureus (MRSA); set-up: method as in PMID 25157458; conditions: previously reported; cited from earlier work
Source text: The development of a new class of antibiotics to fight bacterial resistance is a time-consuming effort associated with high-cost and commercial risks. Thus, modification, conjugation or combination of existing antibiotics to enhance their efficacy is a suitable strategy. […] Herein, we hypothesized that conjugation or combination of the amphiphilic cyclic peptide [R4W4] with levoflox ... || Antimicrobial peptides (AMPs) are vital parts of the innate immune system, which usually act at the level of the plasma membrane of the bacterial cell. AMPs have a unique mode of action, which is mostly related to their cationic and amphipathic properties, making them capable of interacting with microbial membranes. Accordingly, AMPs have attracted increasing attention as potential candidates against resistant bacteria. […] T ...

[4] = system: Escherichia coli; set-up: method as in PMID 25157458; conditions: previously reported; cited from earlier work
[5] = broth microdilution, Mueller Hinton media, 2-fold dilutions, 37 °C overnight, no visible growth, triplicate, N/A = not active
[6] = Clinical strain (levofloxacin-susceptible)
[7] = broth microdilution, Mueller Hinton media, 2-fold dilutions, 37 °C overnight, no visible growth, triplicate, N/A = not active, listed as levofloxacin-Q

- MIC, Methicillin-Resistant Staphylococcus aureus (MRSA) [1, 5]: 8 µg/mL (≈ 4.37 µM)
- MIC, Klebsiella pneumoniae [2, 5]: 32 µg/mL (≈ 17.5 µM)
SMILES: C[C@H]1COc2c(F)c(F)cc3c(=O)c(C(=O)NCCC(=O)NCCCC[C@@H]4NC(=O)[C@H](Cc5c[nH]c6ccccc56)NC(=O)[C@H](Cc5c[nH]c6ccccc56)NC(=O)[C@H](Cc5c[nH]c6ccccc56)NC(=O)[C@H](Cc5c[nH]c6ccccc56)NC(=O)[C@H](CCCNC(=N)N)NC(=O)[C@H](CCCNC(=N)N)NC(=O)[C@H](CCCNC(=N)N)NC(=O)[C@H](CCCNC(=N)N)NC4=O)cn1c23 (cyclo(K([βAla-X1])RRRRWWWW))

- MIC, Methicillin-Resistant Staphylococcus aureus (MRSA) [1, 5]: 32 µg/mL (≈ 16.7 µM)
SMILES: C[C@H]1COc2c(N3CCN(C)CC3)c(F)cc3c(=O)c(C(=O)NCCC(=O)NCCCC[C@@H]4NC(=O)[C@H](Cc5c[nH]c6ccccc56)NC(=O)[C@H](Cc5c[nH]c6ccccc56)NC(=O)[C@H](Cc5c[nH]c6ccccc56)NC(=O)[C@H](Cc5c[nH]c6ccccc56)NC(=O)[C@H](CCCNC(=N)N)NC(=O)[C@H](CCCNC(=N)N)NC(=O)[C@H](CCCNC(=N)N)NC(=O)[C@H](CCCNC(=N)N)NC4=O)cn1c23 [Conjugate cyclic [R4W4]-levofloxacin (8)] (cyclo(K([βAla-Levofloxacinoyl])RRRRWWWW))

- MIC, Methicillin-Resistant Staphylococcus aureus (MRSA) [1, 5]: 64 µg/mL (≈ 33.2 µM)
- MIC, Klebsiella pneumoniae [2, 6]: >128 µg/mL
SMILES: C[C@H]1COc2c(N3CCN(C)CC3)c(F)cc3c(=O)c(C(=O)NCCC(=O)NCCCC[C@H](N)C(=O)N[C@@H](CCCNC(=N)N)C(=O)N[C@@H](CCCNC(=N)N)C(=O)N[C@@H](CCCNC(=N)N)C(=O)N[C@@H](CCCNC(=N)N)C(=O)N[C@@H](Cc4c[nH]c5ccccc45)C(=O)N[C@@H](Cc4c[nH]c5ccccc45)C(=O)N[C@@H](Cc4c[nH]c5ccccc45)C(=O)N[C@@H](Cc4c[nH]c5ccccc45)C(=O)O)cn1c23 [Conjugate linear (R4W4)-levofloxacin (6)] (H-K([βAla-Levofloxacinoyl])RRRRWWWW-OH)

- MIC [1, 5]: 2 µg/mL (≈ 5.53 µM)
- MIC, Methicillin-Resistant Staphylococcus aureus (MRSA) [1, 5]: 2 µg/mL (≈ 5.53 µM)
- MIC [2, 5]: 4 µg/mL (≈ 11.1 µM)
- MIC, Klebsiella pneumoniae [2, 5]: 4 µg/mL (≈ 11.1 µM)
SMILES: C[C@H]1COc2c(N3CCN(C)CC3)c(F)cc3c(=O)c(C(=O)O)cn1c23 [Levofloxacin (1), Levofloxacin]

- MIC, Methicillin-Resistant Staphylococcus aureus (MRSA) [1, 5]: >128 µg/mL
- MIC, Methicillin-Resistant Staphylococcus aureus (MRSA) [1, 7]: > 128 µg/mL
- MIC, Klebsiella pneumoniae [2, 5]: >128 µg/mL
- MIC, Klebsiella pneumoniae [2, 7]: > 128 µg/mL
SMILES: C[C@H]1COc2c(F)c(F)cc3c(=O)c(C(=O)O)cn1c23 [Levofloxacin-Q (2), Levofloxacin-Q acid]

- MIC [2, 5]: 1 µg/mL (≈ 2.61 µM)
SMILES: C[C@@H](O)[C@H]1C(=O)N2C(C(=O)O)=C(S[C@@H]3CN[C@H](C(=O)N(C)C)C3)[C@H](C)[C@H]12 [Meropenem]

SMILES: CN[C@H](CC(C)C)C(=O)N[C@H]1C(=O)N[C@@H](CC(N)=O)C(=O)N[C@H]2C(=O)N[C@H]3C(=O)N[C@H](C(=O)N[C@H](C(=O)O)c4cc(O)cc(O)c4-c4cc3ccc4O)[C@H](O)c3ccc(c(Cl)c3)Oc3cc2cc(c3O[C@@H]2O[C@H](CO)[C@@H](O)[C@H](O)[C@H]2O[C@H]2C[C@](C)(N)[C@H](O)[C@H](C)O2)Oc2ccc(cc2Cl)[C@H]1O [Vancomycin]
- MIC [1]: 1 µg/mL (≈ 0.69 µM)

- MIC, Methicillin-Resistant Staphylococcus aureus (MRSA) ([1]; Methicillin-Resistant (Los Angeles County (LAC) clone)): 4 µg/mL (≈ 2.92 µM)
- MIC, Klebsiella pneumoniae [2, 6]: 16 µg/mL (≈ 11.7 µM)
SMILES: N=C(N)NCCC[C@@H]1NC(=O)[C@H](CCCNC(=N)N)NC(=O)[C@H](CCCNC(=N)N)NC(=O)[C@H](Cc2c[nH]c3ccccc23)NC(=O)[C@H](Cc2c[nH]c3ccccc23)NC(=O)[C@H](Cc2c[nH]c3ccccc23)NC(=O)[C@H](Cc2c[nH]c3ccccc23)NC(=O)[C@H](CCCNC(=N)N)NC1=O [[R4W4] (3)] (cyclo(RRRRWWWW))
- MIC against MRSA [3]: 2.97 µg/mL

SMILES: CN(C)[C@@H]1C(O)=C(C(N)=O)C(=O)[C@@]2(O)C(O)=C3C(=O)c4c(O)cccc4[C@@](C)(O)[C@H]3C[C@@H]12 [tetracycline]
- MIC against MRSA [3]: 0.5 µg/mL
- MIC against Escherichia coli [4]: 2 µg/mL (≈ 4.5 µM)
